Reference: patent publication US10160867B2, “Benzoxaborole-containing coating resistant to cellulose-supportable fungus” (THE PENN STATE RESEARCH FOUNDATION, priority 2015, dated 2018)
Converted amounts (≈) assume the structure as drawn.

Legend:
Assay type in all cases: cell-based
Aspergillus fumigatus = assay: 3 day MIC, broth microdilution in 25% PDB; conditions: 72 h
Method: (§1) Stock solutions (concentrations of between 4,000 μg/mL to 10,000 μg/mL; stored at −18° C.) of the above antifungals were prepared in dimethyl sulfoxide (DMSO). The stock solutions were further diluted into sterile 25% potato dextrose broth (PDB) so that the diluted solutions could be used for the antifungal susceptibility studies. This way, a typical microdilution study would reach a final ratio of about 0.5-2% v/v of DMSO in 25% PDB.
(§2) Spore inocula were prepared in sterile distilled water with 0.1% Tween® 20 (a polysorbate surfactant), and a hemocytometer was used to determine the spore density. Typically, the spore inoculum was prepared fresh prior to each study, and the inoculum was appropriately diluted to a final concentration of 0.4-1×10^5 spores/mL or colony-forming unit (CFU)/mL in each study. The spore suspension can be stored in a refrigerator at 4° C. for up to one week.
The minimal inhibitory concentrations (MICs) for individual antifungal agents were determined by following a modified broth microdilution protocol CLSI (Clinical and Laboratory Standards Institute) M38-A2 [Clinical and Laboratory Standards Institute (2008) Reference method for broth dilution antifungal susceptibility testing of filamentous fungi—2nd edition: Approved Standard M38-A2, CLSI, Wayne, Pa.] where 25% potato dextrose broth (PDB) was used as the medium. The studies were performed in flat bottom, 96-well microtiter plates (Greiner Bio-One, Frickenhausen, Germany).
(§3) Plates sealed with clear polyester film (VWR, Radnor, Pa.) were incubated at a temperature of about 25° C. The progress of fungal growth was monitored at 48 hours and 72 hours.

Penicillium purpurogenum = assay: 3 day MIC, broth microdilution in 25% PDB; conditions: 72 h; Penicillium purpurogenum; 25% PDB; read-out: 3 day MIC
Method: as §1, §2
(§4) The studies were performed in flat bottom, 96-well microtiter plates (Greiner Bio-One, Frickenhausen, Germany).
as §3

[1] = test system: Penicillium brevicompactum; assay: 3 day MIC, broth microdilution in 25% PDB; conditions: 72 h, 25% PDB, read-out: 3 day MIC
Method: as §1, §2, §4, §3

Alternaria alternata [2] = assay: 3 day MIC, broth microdilution in 25% PDB; conditions: 72 h, 25% PDB, read-out: 3 day MIC
Method: as §1, §2, §4, §3

Penicillium chrysogenum [3] = assay: 3 day MIC, broth microdilution in 25% PDB; conditions: 72 h, 25% PDB, read-out: 3 day MIC
Method: as §1, §2, §4, §3

Stachybotrys chartarum [4] = assay: 3 day MIC, broth microdilution in 25% PDB; conditions: 72 h, 25% PDB, read-out: 3 day MIC
Method: as §1, §2, §4, §3

Penicillium corylophilum = assay: 3 day MIC, broth microdilution in 25% PDB; conditions: 72 h, 25% PDB, read-out: 3 day MIC
Method: as §1, §2, §4, §3

Alternaria alternata [5] = assay: Fungus resistance test after painting over fungal growth (defacement rating); conditions: painted over fungal growth
Excerpt: (§5) In this series of experiments, fungal growth was allowed to cover a painted surface (surface containing 2 coats of the unaltered paint) to a defacement rating of 3-5, forming a ‘contaminated surface’. […] The paint application was extended approximately 1-2 cm beyond the edge of the disc onto the NSA medium. Each formulation used a separate brush to avoid cross contamination. The re-painted discs were placed back into the humid environment with elevated temperature to encourage fungal growth.
(§6) This test was used to evaluate the ability of paint films containing antifungal additives to prevent the re-emergence of fungal growth after painting over existing growth.
(§7) Olympic® Home interior flat latex paint (PPG Industries, Pittsburgh, Pa.) and Valspar® QuikHide White flat interior paint (Valspar Corporation, Minneapolis, Minn.) were used for the experiments in this study unless specified. Stock solutions of the antifungal additives of interest were prepared in reagent grade dimethyl sulfoxide (DMSO; Alfa Aesar, Ward Hill, Mass.). Additives were spiked (by adding appropriate amounts of the antifungal stock solutions) into the liquid paint at specified concentrations. Samples of additive-spiked paint were vigorously mixed with a vortex mixer for at least one minute to insure uniform dispersion of the additive in the paint. […] Studies that used other brands of paint followed the same protocol as described for those using the Olympic® Home interior flat latex paint.
(§8) Test surfaces were prepared in triplicate. In most cases, the tested conditions were repeated on a different date, again in triplicate. […] Two coats of paint were applied with a polyester brush to completely cover both faces of the filter paper disc, allowing at least four hours drying time between coats.
(§9) Nutrient-Salts Agar (NSA) media was prepared according to ASTM method G21-13 in 100×15 mm sterile polystyrene petri dishes (VWR® Radnor, Pa.) with a solidified agar layer from 3 to 6 mm (⅛ to ¼ in.) in depth. The agar was allowed to solidify for at least 24 hours before being used. The painted test filter paper discs were placed in the center of the agar plates in a biosafety hood while wearing clean nitrile gloves.
(§10) The paint coatings were evaluated against three representative fungi: Stachybotrys chartarum, Penicillium chrysogenum, and Alternaria alternata. […] Fungal isolates of Alternaria alternata and Penicillium chrysogenum were obtained from the Plant Pathology and Environmental Microbiology Department at Penn State University.
(§11) A spore suspension of each of these fungi was prepared by pouring a 20-mL portion of autoclaved deionized water containing 0.01% Tween® 20 onto a subculture of each fungal species. Spores were counted with the use of a hemocytometer (Hausser Scientific, Horsham, Pa.) under a microscope. Spore suspensions of Stachybotrys chartarum and Penicillium chrysogenum were diluted to 1×10^6 spores/mL with autoclaved deionized water. Spore suspensions of Alternaria alternata were used “as is” in the range of 200,000 to 400,000 spores/mL.
(§12) Painted test surfaces were inoculated with a spray bottle or with a cotton-tipped applicator. To inoculate the sample with a spray bottle, the spore suspension was sprayed twice on the painted test discs with a spray bottle that delivered approximately 0.14 g of fluid per spray. To inoculate the sample with a cotton-tipped applicator, an autoclaved cotton-tipped applicator was submerged in approximately 400 μL of the inoculum solution and applied evenly over the surface of the painted test surface twice.

Penicillium chrysogenum [6] = assay: as above; conditions: painted over fungal growth, +200 μg/mL in Valspar QuikHide paint
Excerpt: as §5, §6, §7, §8, §9, §10, §11, §12

Stachybotrys chartarum [7] = assay: as above; conditions: painted over fungal growth, +100 μg/mL in Olympic Home paint
Excerpt: as §5, §6, §7, §8, §9, §10, §11, §12

For `c1ccc2[nH]c(-c3cscn3)nc2c1` [Thiabendazole], the MIC (Aspergillus fumigatus) was 6.25 µg/mL (≈ 31.1 µM), the MIC (Penicillium purpurogenum) was 0.2 µg/mL (≈ 0.994 µM) and the MIC [1] was 0.4 µg/mL (≈ 1.99 µM). For the same compound, the MIC (Alternaria alternata [2]) was 100 µg/mL (≈ 497 µM), the MIC (Penicillium chrysogenum [3]) was 0.4 µg/mL (≈ 1.99 µM) and the MIC (Stachybotrys chartarum [4]) was 25 µg/mL (≈ 124 µM). The MIC (Penicillium corylophilum) was 0.39 µg/mL (≈ 1.94 µM), the “Average defacement rating ± standard deviation” value (Alternaria alternata [5]; +100 μg/mL in Olympic Home paint, 7 days) was 0.0 ± 0.0 (6) and the “Average defacement rating ± standard deviation” value (Alternaria alternata [5]; +100 μg/mL in Olympic Home paint, 14 days) was 0.0 ± 0.0 (6). For the same compound, the “Average defacement rating ± standard deviation” value (Alternaria alternata [5]; +100 μg/mL in Olympic Home paint, 21 days) was 0.0 ± 0.0 (6), the “Average defacement rating ± standard deviation” value (Alternaria alternata [5]; +1000 μg/mL in Olympic Home paint, 7 days) was 7.3 ± 1.3 (10) and the “Average defacement rating ± standard deviation” value (Alternaria alternata [5]; +1000 μg/mL in Olympic Home paint, 14 days) was 3.6 ± 1.7 (10). The “Average defacement rating ± standard deviation” value (Alternaria alternata [5]; +1000 μg/mL in Olympic Home paint, 21 days) was 2.8 ± 1.1 (10), the “Average defacement rating ± standard deviation” value (Penicillium chrysogenum [6]; 7 days) was 6.7 ± 4.6 (9) and the “Average defacement rating ± standard deviation” value (Penicillium chrysogenum [6]; 14 days) was 2.2 ± 4.4 (9). For the same compound, the “Average defacement rating ± standard deviation” value (Penicillium chrysogenum [6]; 21 days) was 2.2 ± 4.4 (9), the “Average defacement rating ± standard deviation” value (Stachybotrys chartarum [7]; 7 days) was 0.7 ± 1.6 (6) and the “Average defacement rating ± standard deviation” value (Stachybotrys chartarum [7]; 14 days) was 0.2 ± 0.8 (6). For the same compound, the “Average defacement rating ± standard deviation” value (Stachybotrys chartarum [7]; 21 days) was 0.2 ± 0.8 (6).
